Source: patent publication US11357840B2, “Methods and compositions for reducing growth, migration and invasiveness of brain cancer stem cells and improving survival of patients with brain tumors” (HYPERSTEM SA, priority 2014, dated 2022)
No end group written: not given here. *: point of attachment. Boc = CC(C)(C)OC(=O)*; For = O=C*

Columns and labels:
[1] = tested on: 4T1 breast cancer cells; conditions: in vitro; Safholm et al. 2008; cited from earlier work
[2] = tested on: hGBM TPC-derived tumors (GFI / GFD TPCs); assay: Orthotopic implantation of luciferase-tagged TPCs into SCID mice; format: in vivo, mouse (SCID); conditions: for tumor growth (luc-TPC signal, time course): GFI cells treated in culture prior to transplantation (pre-treatment), SCID mice, FIG. 18c; for tumor growth (luc-TPC signals, time course): co-injection (co-treatment) with either GFD or GFI TPCs, FIGS. 18e and 18f; for tumor spread through the brain parenchyma (luciferase immunolabeling): luc-GFI pre-treated vs untreated GFI TPCs, FIG. 18d
Experimental: Evaluation of Tumorigenic Ability and Invasiveness In Vivo by Orthotopic Implantation
Tumorigenicity was determined by injecting tumor cells into immunodeprived adult severe combined immunodeficiency (SCID) mice. (Galli et al., Cancer Res. 2004, 65:7011-7021). Tumor cells, for example, GFI TPCs, GFD TPCs, GFI TPCs pretreated with Box5 (SEQ ID NO: 1), GFI TPCs pretreated with PeptideA (SEQ ID NO: 2) were injected into SCID mice orthotopically to evaluate the tumorigenic ability and invasiveness in vivo. Also, GFD or GFI TPCs and Wnt5a-blocking protein (AbWt), alone or in combination with BMP4 (B4), Box5 (SEQ ID NO: 1) and PeptideA (SEQ ID NO: 2) were co-injected into the SCID mice.
Mice were sacrificed at different times. Serial histological reconstruction of mouse brain sections were immunolabeled for luciferase for evaluation.
Results from in vivo experiments were all subjected to statistical analysis. Survival curves were estimated using the Kaplan-Meier method.

[3] = tested on: growth factor independent (GFI) hGBM TPCs; assay: Matrigel invasion assay, GFI TPCs; format: cell-based, human
Excerpt: Invasion Assays—Matrigel Invasion Assays
An Invasion Assay is an in vitro system to study invasion capability of malignant and normal cells. Specific applications include assessment of the metastatic potential of tumor cells, inhibition of metastasis by extracellular matrix components or antineoplastic drugs, altered expression of cell surface proteins, or matrix metalloproteinases in metastatic cells; and invasion of normal cells such as embryonic stem cells, cytotrophoblasts, endothelial cells, and fibroblasts.
According to one embodiment, the following Matrigel invasion assay protocol is one example of an invasion assay. A coating buffer is prepared and a Matrigel Matrix aliquot is thawed at 4° C. Then, a coating solution is prepared by mixing the Matrigel Matrix with the coating buffer. A number of permeable supports are transferred into the wells of a 24-well plate and 100 ul of the diluted Matrigel is put into each well of the 24-well plate. The plate is then incubated with the coated permeable support at 37° C. for 2 h for gelling. Cells are cultured and prepared for the invasion assay, for example, growth factor dependent hGBM tumor-propagating cells with stem-like characteristic (GFD TPCs) are pretreated with saturating concentrations of recombinant Wnt5a protein (GFD+R5); lentiviral-mediated over-expression GFD cells (GFD+LV5); growth factor independent (GFI) TPCs are treated with saturating concentrations of a Wnt5a-blocking antibody (AbW5) or of a recombinant Wnt3a protein (R3) or of a recombinant secreted frizzled-related protein 1 (SFRP1), or GFI TPCs exposed to Wnt5a-derived peptides termed Box5 (SEQ ID NO: 1), Peptide A (SEQ ID NO: 2) and Peptide B (SEQ ID NO: 3) Cell suspensions are prepared in culture medium containing 5×10^4 cells/mL for the 24 well invasion chambers. An aliquot of 0.5 mL of cell suspension (2.5×10^4 cells) is then added to each 24 well invasion chamber. A chemoattractant is added to the wells of the plate (such as fibronectin as an adhesive substrate). The Cell invasion chambers are then incubated overnight in a humidified tissue culture incubator at 37° C., 5% CO2 atmosphere. The noninvaded cells on the top of the Matrigel coated permeable support are scraped off with a cotton swab. Then the permeable supports from 24-well plates are removed and stained with a cell staining solution and the invaded cells are counted under a light microscope.

[4] = tested on: GFI or GFD TPCs; assay: Growth kinetics (expansion) of TPCs; format: cell-based, human; conditions: FIG. 16g
[5] = tested on: melanoma cells; conditions: Jenei et al. 2009; cited from earlier work
[6] = tested on: growth factor dependent hGBM TPCs (GFD TPCs); assay: Matrigel invasion assay, GFD TPCs; format: cell-based, human; conditions: GFD cells treated with saturating concentrations (GFD+R5); FIG. 16a
Experimental: According to one embodiment, the following Matrigel invasion assay protocol is one example of an invasion assay. A coating buffer is prepared and a Matrigel Matrix aliquot is thawed at 4° C. Then, a coating solution is prepared by mixing the Matrigel Matrix with the coating buffer. A number of permeable supports are transferred into the wells of a 24-well plate and 100 ul of the diluted Matrigel is put into each well of the 24-well plate. The plate is then incubated with the coated permeable support at 37° C. for 2 h for gelling. […] Then the permeable supports from 24-well plates are removed and stained with a cell staining solution and the invaded cells are counted under a light microscope. […]

[7] = GFI TPCs exposed to Wnt5a-derived peptides, FIGS. 16c and 16d
[8] = saturating concentrations, FIG. 16b

## For-MDGCEL [Foxy-5, reference compound]
[1]
  apoptosis or proliferation of 4T1 breast cancer cells: without affecting
  migration and invasion of 4T1 breast cancer cells: impaired migration and invasion

## LECGDM [Peptide A, hexapeptide LECGDM, peptide derivative of Box5]
[2]
  tumor growth (luc-TPC signal, time course): tumor growth is decreased
  tumor growth (luc-TPC signals, time course): inhibited
  tumor spread through the brain parenchyma (luciferase immunolabeling): spread through the brain parenchyma less
[3]; [7]
  invasiveness of GFI TPCs: decreased the invasiveness of GFI TPCs in a dose-dependent fashion
[4]
  ability of GFI or GFD TPCs to expand (slope of the growth curves): negligible effects

## Leu-Glu-Gly-Asp-Met (LEGDM) [Peptide B, pentapeptide LEGDM, peptide derivative of Box5]
[3]; [7]
  invasiveness of GFI TPCs: decreased the invasiveness of GFI TPCs in a dose-dependent fashion

## t-butoxycarbonyl-Met-Asp-Gly-Cys-Glu-Leu (Boc-MDGCEL) [Box5, Wnt5a-derived hexapeptide MDGCEL, antagonist of Wnt5a, modified from Foxy-5, reference compound]
[2]
  tumor growth (luc-TPC signal, time course): tumor growth is decreased
  tumor growth (luc-TPC signals, time course): inhibited
  tumor spread through the brain parenchyma (luciferase immunolabeling): spread through the brain parenchyma less
[3]; [7]
  invasiveness of GFI TPCs: decreased the invasiveness of GFI TPCs in a dose-dependent fashion
[4]
  ability of GFI or GFD TPCs to expand (slope of the growth curves): negligible effects
[5]
  antagonism of Wnt5a-mediated migration and invasion of melanoma cells: potent, selective antagonist

B1: recombinant Wnt3a protein: recombinant Wnt3a protein (R&D Systems) (protein, UniProt P56704 19-352, looked up)
Protein Wnt-3a: SYPIWWSLAVGPQYSSLGSQPILCASIPGLVPKQLRFCRNYVEIMPSVAEGIKIGIQECQHQFRGRRWNCTTVHDSLAIFGPVLDKATRESAFVHAIASAGVAFAVTRSCAEGTAAICGCSSRHQGSPGKGWKWGGCSEDIEFGGMVSREFADARENRPDARSAMNRHNNEAGRQAIASHMHLKCKCHGLSGSCEVKTCWWSQPDFRAIGDFLKDKYDSASEMVVEKHRESRGWVETLRPRYTYFKVPTERDLVYYEASPNFCEPNPETGSFGTRDRTCNVSSHGIDGCDLLCCGRGHNARAERRREKCRCVFHWCCYVSCQECTRVYDVHTCK
[3]; [8]
  invasiveness of GFI TPCs: decreased the invasiveness

B2: recombinant Wnt5a protein: recombinant Wnt5a protein (protein)
chain: IIGAQPLCSQLAGLSQGQKKLCHLYQDHMQYIGEGAKTGIKECQYQFRHRRWNCSTVDNTSVFGRVMQIGSRETAFTYAVSAAGVVNAMSRACREGELSTCGCSRAARPKDLPRDWLWGGCGDNIDYGYRFAKEFVDARERERIHAKGSYESARILMNLHNNEAGRRTVYNLADVACKCHGVSGSCSLKTCWLQLADFRKVGDALKEKYDSAAAMRLNSRGKLVQVNSRFNSPTTQDLVYIDPSPDYCVRNESTGSLGTQGRLCNKTSEGMDGCELMCCGRGYDQFKTVQTERCHCKFHWCCYVKCKKCTEIVDQFVCK
[1]
  apoptosis or proliferation of 4T1 breast cancer cells: without affecting
  migration and invasion of 4T1 breast cancer cells: impaired migration and invasion
[6]
  cell migration of GFD cells: increase in cell migration

B3: SFRP1: recombinant secreted frizzled-related protein 1, an endogenous Wnt antagonist (protein, UniProt Q8N474 32-314, looked up)
Secreted frizzled-related …: SEYDYVSFQSDIGPYQSGRFYTKPPQCVDIPADLRLCHNVGYKKMVLPNLLEHETMAEVKQQASSWVPLLNKNCHAGTQVFLCSLFAPVCLDRPIYPCRWLCEAVRDSCEPVMQFFGFYWPEMLKCDKFPEGDVCIAMTPPNATEASKPQGTTVCPPCDNELKSEAIIEHLCASEFALRMKIKEVKKENGDKKIVPKKKKPLKLGPIKKKDLKKLVLYLKNGADCPCHQLDNLSHHFLIMGRKVKSQYLLTAIHKWDKKNKEFKNFMKKMKNHECPTFQSVFK
[3]; [8]
  invasiveness of GFI TPCs: decreased the invasiveness

B4: BMP4: bone morphogenetic protein 4, positive control (protein, UniProt P12644 293-408, looked up)
Bone morphogenetic protein 4: SPKHHSQRARKKNKNCRRHSLYVDFSDVGWNDWIVAPPGYQAFYCHGDCPFPLADHLNSTNHAIVQTLVNSVNSSIPKACCVPTELSAISMLYLDEYDKVVLKNYQEMVVEGCGCR
[4]
  ability of GFI or GFD TPCs to expand (slope of the growth curves): significantly triggered negative deviations from the growth kinetics
